The record followed here is ChEMBL document CHEMBL1201862, “PubChem BioAssay data set” (2004).

Some test systems named below: 786-0; SNB-19; MOLT-4; HCT-116; TK-10; NCI-H23; HCC 2998; UO-31; SK-OV-3; SN12C; U-251; SF-295; HL-60; A498; RPMI-8226; SNB-75; RXF 393; OVCAR-8; EKVX.
What all share (test): growth of human tumour cells (NCI), 48 h

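48-hour exposure; five concentrations; linearly interpolated endpoints. Here, GI50 denotes the concentration required for 50% inhibition of growth.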 Calls of active or inactive are those of the source. No stated cut-off is given here; in the data, active = GI50 up to about 1.1 µM and inactive = higher.

With `CC1=CC[C@@H]2[C@@H](CC[C@@]2(C)O)C(C)(C)[C@H]1CC[C@@H]1[C@@]2(C)CC[C@@H](O)C(C)(C)O[C@@H]2CC[C@]1(C)O`, the GI50 in the assay on 786-0 was 18.3 µM (inactive); with SNB-19, 14.2 µM (inactive); in the assay with MOLT-4, 17.9 µM (inactive); in the assay with HCT-116 it was 14 µM (inactive); with TK-10, 35.6 µM (inactive); in the assay with NCI-H23 it was 24.5 µM (inactive). Moreover, the GI50 with HCC 2998 was 17.5 µM (inactive); in the assay on UO-31, 17 µM (inactive); with SK-OV-3, 35.9 µM (inactive); with SN12C, 24.9 µM (inactive); in the assay on U-251, 17.1 µM (inactive); in the assay on SF-295, 33.1 µM (inactive). Moreover, the GI50 in the assay on HL-60 was 21.4 µM (inactive); in the assay with A498, 15 µM (inactive); with RPMI-8226 it was 18.9 µM (inactive).

In the case of `COC(=O)C[C@H]1CCC2(OCCO2)[C@]1(C)C(=O)OC`, the GI50 in the assay with 786-0, in the assay on SNB-75, with SNB-19, in the assay with MOLT-4, in the assay with HCT-116 and in the assay with TK-10 was > 100 µM (inactive) throughout. The GI50 in the assay on NCI-H23, in the assay with UO-31, in the assay on RXF 393, in the assay with SK-OV-3, in the assay on OVCAR-8 and in the assay on SN12C was > 100 µM (inactive) in each case. Also, the GI50 in the assay on U-251, with SF-295, with EKVX, in the assay on HL-60, with A498 and in the assay with RPMI-8226 was > 100 µM (inactive) each time.

Regarding `Oc1ccccc1-c1cnnc(-c2ccccc2O)c1`, the GI50 with 786-0 was 17.9 µM (inactive); in the assay on SNB-75, 20.4 µM (inactive); with MOLT-4, 18.1 µM (inactive); with HCT-116 it was 20.1 µM (inactive); in the assay with TK-10, 28.7 µM (inactive); in the assay with UO-31, 19.7 µM (inactive). The GI50 with RXF 393 is 20.3 µM (inactive); in the assay with SK-OV-3 it was 43.5 µM (inactive); in the assay on OVCAR-8, 22.6 µM (inactive); in the assay on SN12C it was 30.3 µM (inactive); with EKVX it was 24.1 µM (inactive); in the assay with HL-60, 19.8 µM (inactive). For the same molecule, in the assay with RPMI-8226, the GI50 is 16.7 µM (inactive).

With `Cc1cc(Cl)cc2c1NC(=O)C2(O)CC(=O)c1ccc(F)cc1` (configuration not stated), the GI50 is 27 µM (inactive) in the assay on 786-0; 26.5 µM (inactive) with SNB-75; > 100 µM (inactive) with SNB-19; 56.4 µM (inactive) with HCT-116; > 100 µM (inactive) in the assay on TK-10; 61.1 µM (inactive) in the assay on NCI-H23. In addition, the GI50 in the assay on HCC 2998 is 36.1 µM (inactive); with UO-31 it was 47.6 µM (inactive); with RXF 393 it was 19.7 µM (inactive); in the assay on SK-OV-3, > 100 µM (inactive); in the assay with OVCAR-8 it was 80.7 µM (inactive); in the assay with SN12C it was 27.2 µM (inactive). Also, the GI50 in the assay with U-251 is 39 µM (inactive); in the assay on SF-295, 53.8 µM (inactive); with EKVX, > 100 µM (inactive); in the assay on RPMI-8226, 27.2 µM (inactive).

As to `C=C(CS(=O)(=O)c1ccccc1)C(=O)OCC`, the GI50 was 17.3 µM (inactive) with 786-0; 17.4 µM (inactive) in the assay on SNB-75; 20 µM (inactive) in the assay on SNB-19; 2.81 µM (inactive) in the assay on MOLT-4; 13.4 µM (inactive) with HCT-116; 17.4 µM (inactive) with TK-10. Moreover, the GI50 with NCI-H23 was 18.2 µM (inactive); with HCC 2998, 19.4 µM (inactive); in the assay with UO-31, 20 µM (inactive); with RXF 393, 11.7 µM (inactive); in the assay on SK-OV-3, 14.4 µM (inactive); with OVCAR-8, 10.5 µM (inactive). Further, the GI50 with SN12C was 16.3 µM (inactive); with U-251, 16.9 µM (inactive); with SF-295, 18.1 µM (inactive); in the assay on EKVX it was 19.7 µM (inactive).

Take `Cc1cc(-c2ccccc2)cc2[n+]1CC=C2.[O-][Cl+3]([O-])([O-])[O-]`: the GI50 in the assay on 786-0 was > 100 µM (inactive); in the assay on SNB-75 it was 35.2 µM (inactive); in the assay with SNB-19, > 100 µM (inactive); in the assay with HCT-116, > 100 µM (inactive); in the assay with TK-10, 46.6 µM (inactive); in the assay on NCI-H23, 59.2 µM (inactive). Besides, the GI50 in the assay with HCC 2998 is > 100 µM (inactive); in the assay on UO-31, 39.4 µM (inactive); with RXF 393 it was 46.1 µM (inactive); in the assay with OVCAR-8, > 100 µM (inactive); with SN12C, 95.5 µM (inactive); in the assay with U-251 it was > 100 µM (inactive). Further, the GI50 in the assay with SF-295 was > 100 µM (inactive); in the assay on EKVX, 54.6 µM (inactive); in the assay on HL-60, 72.3 µM (inactive).

For the molecule `CC(=O)O[C@H]1C(=O)[C@@]2(C)C(C(OC(=O)c3ccccc3)C3[C@@H](O)C(OC(=O)[C@@H](O)[C@H](NC(=O)c4ccccc4)c4ccc(C(F)(F)F)cc4)C(C)=C1C3(C)C)[C@]1(OC(C)=O)CO[C@@H]1C[C@@H]2O` (some centres not stated), the GI50 was > 25 µM (inactive) with 786-0; 7.71 µM (inactive) in the assay with SNB-75; > 25 µM (inactive) in the assay on SNB-19; 11 µM (inactive) with MOLT-4; 9.1 µM (inactive) with HCT-116; > 25 µM (inactive) with TK-10. Besides, the GI50 in the assay on NCI-H23 was > 25 µM (inactive); in the assay on HCC 2998 it was 16.2 µM (inactive); in the assay with UO-31 it was 18.1 µM (inactive); with RXF 393, 14.3 µM (inactive); in the assay on SK-OV-3, > 25 µM (inactive); in the assay with OVCAR-8 it was > 25 µM (inactive). The GI50 is > 25 µM (inactive) in the assay with SN12C; 13.3 µM (inactive) in the assay on U-251; > 25 µM (inactive) in the assay with SF-295; > 25 µM (inactive) with EKVX; 7.98 µM (inactive) in the assay on HL-60; 10.3 µM (inactive) in the assay on RPMI-8226.

As to `Cc1nc2sccn2c1C(=O)N/N=C1\SCC(=O)N1C`, the GI50 in the assay with 786-0, in the assay with SNB-19, in the assay on MOLT-4, with HCT-116, in the assay on TK-10 and with NCI-H23 was > 100 µM (inactive) throughout. The GI50 in the assay with HCC 2998, in the assay with RXF 393, in the assay with SK-OV-3, in the assay with OVCAR-8, with SN12C and in the assay with U-251 was > 100 µM (inactive) throughout. Moreover, the GI50 in the assay on SF-295, in the assay on EKVX, in the assay on HL-60 and in the assay on RPMI-8226 was > 100 µM (inactive) in each case.

Regarding `CC[C@@]1(O)C(=O)OCc2c1cc1n(c2=O)Cc2cc3c(OC)cccc3nc2-1`, the GI50 in the assay with 786-0 is 0.211 µM (active); in the assay on SNB-75 it was 0.0622 µM (active); in the assay with SNB-19, < 0.1 µM (active); in the assay on MOLT-4 it was 0.14 µM (active); with TK-10 it was 3.74 µM (inactive); in the assay with NCI-H23, < 0.1 µM (active). The GI50 was 0.308 µM (active) in the assay on RXF 393; 0.117 µM (active) in the assay on SK-OV-3; < 0.1 µM (active) in the assay on SN12C; < 0.1 µM (active) in the assay with SF-295; 2.04 µM (inactive) with EKVX; < 0.01 µM (active) in the assay with HL-60. Besides, the values for the GI50 in the assay on A498 and in the assay with RPMI-8226 were 0.6 µM (active) and 0.0158 µM (active), respectively.

Regarding `CCOP(=O)(OCC)/C(C#N)=C\c1ccsc1`, the GI50 in the assay on 786-0, in the assay with SNB-75, in the assay on SNB-19, in the assay on MOLT-4, in the assay with HCT-116 and with TK-10 was > 100 µM (inactive) in each case. For the same molecule, the GI50 in the assay with NCI-H23, in the assay with HCC 2998, in the assay with UO-31, with RXF 393, with SK-OV-3 and in the assay on OVCAR-8 was > 100 µM (inactive) throughout. Further, the GI50 in the assay on SN12C, in the assay on U-251, in the assay with SF-295, in the assay on EKVX and in the assay with RPMI-8226 was > 100 µM (inactive) each time.

For the molecule `O=C(Cc1ccccc1)NN1C(=O)C(Cl)C1c1cc(Br)ccc1O` (configuration not stated), the GI50 in the assay with 786-0 is 5.89 µM (inactive); in the assay on SNB-75 it was 10.4 µM (inactive); in the assay with SNB-19, 10.4 µM (inactive); with MOLT-4 it was 1.04 µM (active); with HCT-116 it was 3.83 µM (inactive); with TK-10 it was 21.6 µM (inactive). The GI50 is 4.43 µM (inactive) with NCI-H23; 9.46 µM (inactive) in the assay on HCC 2998; 7.45 µM (inactive) in the assay on UO-31; 19.1 µM (inactive) in the assay with RXF 393; 4.07 µM (inactive) in the assay on SK-OV-3; 3.87 µM (inactive) in the assay on OVCAR-8. Further, the GI50 in the assay on SN12C was 7.29 µM (inactive); in the assay on U-251, 3.69 µM (inactive); in the assay with SF-295 it was 6.19 µM (inactive); with EKVX it was 3.03 µM (inactive); with HL-60, 2.46 µM (inactive); in the assay with RPMI-8226 it was 3.72 µM (inactive).

Consider `CN(C)CCC(=O)/C=C\c1ccccc1`, for which the GI50 in the assay on 786-0 was 16.3 µM (inactive); with SNB-75 it was 60.1 µM (inactive); in the assay on SNB-19, 39.2 µM (inactive); with MOLT-4, 13.5 µM (inactive); in the assay with HCT-116, 15.3 µM (inactive); with TK-10 it was 18.5 µM (inactive). Besides, the GI50 in the assay with UO-31 was 17.6 µM (inactive); with RXF 393 it was 15.6 µM (inactive); in the assay with OVCAR-8 it was 18.1 µM (inactive); with SN12C, 16.6 µM (inactive); in the assay with U-251 it was 17.5 µM (inactive); with SF-295, 20.3 µM (inactive). Moreover, the GI50 is 18.7 µM (inactive) in the assay with EKVX, 10.6 µM (inactive) in the assay with HL-60, 20 µM (inactive) with A498 and 14.6 µM (inactive) with RPMI-8226.
